# Experimental data taken from patent publication US20220409620A1, “REDUCING IMMUNOGENICITY TO PEGLOTICASE” (Horizon Pharma Rheumatology LLC, priority 2016, published 2022).
# System: adult patients with uncontrolled gout
# Assay: Serum uric acid (sUA) levels and sUA responder rate, open-label study of pegloticase with MTX (MIRROR OL)
# Type: in vivo, human
# Conditions: mITT Population
# Procedure: The primary objective is to estimate the response rate during Month 6 (Weeks 20, 22, and 24), as measured by the sustained normalization of serum uric acid (SUA) to <6 mg/dL for at least 80% of the time during Month 6 in subjects receiving KXX with MTX.
# The primary efficacy outcome endpoint is the sustained normalization of SUA to <6 mg/dL for at least 80% of the time during month 6 (weeks 20, 22, and 24) in subjects receiving KXX with MTX. […] Participants who achieve this endpoint were classified as “responders.” Serum uric acid (SUA) responders may also be defined as participants achieving and maintaining SUA <6 mg/dL for at least 80% of the time during Month 6 (Weeks 20, 22, and 24).
# Blood samples may be collected prior to each pegloticase infusion for measurement of SUA levels using the Beckman Coulter AU System Uric Acid procedure. Participants were declared “non-responders” if there were SUA measures >6 mg/dL at 2 consecutive study visits beginning with the week 2 visit. […] This assumption and subsequent discontinuation of pegloticase was consistent with the protocol of large phase III randomized controlled trials and the product label. A formal stopping rule was 2 occasions of SUA levels of greater than 6 mg/dL.
# Clinical Chemistry—Blood samples were collected prior to each pegloticase infusion for measurement of SUA levels (primary efficacy parameter) using the Beckman Coulter AU System Uric Acid procedure. In this procedure uric acid is converted to hydrogen peroxide. Hydrogen peroxide reacts with reagent to produce a chromophore which is read bichromatically at 660/800 nm. The amount of dye formed is proportional to the uric acid concentration in the sample.
# Serum samples for measurement of SUA levels were collected at the Screening Visit, the Week −4 Visit (prior to the first dose of MTX), and the Week −2 Visit during the MTX Run-in Period; within 48 hours prior to each pegloticase infusion and after the end of each pegloticase infusion prior to discharge from the site during the Pegloticase+IMM Period; at the non-infusion Week 52/End of Study/Early Termination Visits and at the Post Treatment 3 and 6 Month Follow-up Visits. Additional serum samples for SUA levels were collected at optional non-infusion (Frequent Sampling) Visits at Weeks 1 and 7. […] Subjects with SUA level >6 mg/dL at 2 consecutive visits beginning at Week 2 visit discontinued treatment, completed the End of Pegloticase Infusion Visit procedures within 2 weeks and continued the subject visits according to the protocol (without treatment).
# Efficacy analyses were performed using the modified intention-to-treat (mITT) population, defined as all enrolled subjects who received ≥1 dose of pegloticase. The proportion of Month 6 responders was summarized, along with a 95% confidence interval for the proportion. The proportion of Month 3 and overall (Months 3 and 6 combined) responders was analyzed similarly.
# A subject was declared a non-responder if the subject had SUA level >6 mg/dL at 2 consecutive study visits beginning with the Week 2 Visit. In addition, a subject who withdraws from study treatment for any reason after the first dose of pegloticase in the KXX+MTX Period and prior to Month 6 (for the primary endpoint) or Month 3 (for the secondary endpoint) was considered a non-responder if SUA values were not collected at the planned time points.
# Patients were administered oral MTX (15 mg/week) and folate (1 mg/day) 4 weeks prior to the first pegloticase infusion (Day 1) and throughout the pegloticase treatment period. Blood was drawn prior to each infusion to measure sUA level, monitor clinical parameters, and examine for ADA development. All patients followed typical IR prophylaxis protocols (fexofenadine one day before and the morning of each infusion and acetaminophen and IV corticosteroid the morning of each infusion).
substance,measurement,setting,value
pegloticase,"Serum Uric Acid, Observed, Mean (SD)",Week 34 - Pre-Infusion,0.82 (1.046) mg/dL
same,"Serum Uric Acid, Observed, Median",Week 34 - Pre-Infusion,0.30 mg/dL
same,"sUA <6 mg/dL, n (%)",Week 34 - Pre-Infusion,10 (100%)
same,"Serum Uric Acid, Change from Baseline, Mean (SD)",Week 36 - Post-Infusion,−9.38 (3.799) mg/dL
same,"Serum Uric Acid, Change from Baseline, Median",Week 36 - Post-Infusion,-9.20 mg/dL
same,"Serum Uric Acid, Observed, Mean (SD)",Week 36 - Post-Infusion,0.30 (0.000) mg/dL
same,"Serum Uric Acid, Observed, Median",Week 36 - Post-Infusion,0.30 mg/dL
same,"sUA <6 mg/dL, n (%)",Week 36 - Post-Infusion,6 (100%)
same,"Serum Uric Acid, Change from Baseline, Mean (SD)",Week 36 - Pre-Infusion,−7.90 (4.094) mg/dL
same,"Serum Uric Acid, Change from Baseline, Median",Week 36 - Pre-Infusion,-8.60 mg/dL
same,"Serum Uric Acid, Observed, Mean (SD)",Week 36 - Pre-Infusion,1.58 (2.425) mg/dL
same,"Serum Uric Acid, Observed, Median",Week 36 - Pre-Infusion,0.30 mg/dL
same,"sUA <6 mg/dL, n (%)",Week 36 - Pre-Infusion,8 (88.9%)
same,"Serum Uric Acid, Change from Baseline, Mean (SD)",Week 38 - Pre-Infusion,−8.41 (5.229) mg/dL
same,"Serum Uric Acid, Change from Baseline, Median",Week 38 - Pre-Infusion,-8.60 mg/dL
same,"Serum Uric Acid, Observed, Mean (SD)",Week 38 - Pre-Infusion,0.93 (1.583) mg/dL
same,"Serum Uric Acid, Observed, Median",Week 38 - Pre-Infusion,0.30 mg/dL
same,"sUA <6 mg/dL, n (%)",Week 38 - Pre-Infusion,5 (100%)
same,"Serum Uric Acid, Change from Baseline, Mean (SD)",Week 40 - Pre-Infusion,−11.30 (3.686) mg/dL
same,"Serum Uric Acid, Change from Baseline, Median",Week 40 - Pre-Infusion,-9.80 mg/dL
same,"Serum Uric Acid, Observed, Mean (SD)",Week 40 - Pre-Infusion,0.30 (0.000) mg/dL
same,"Serum Uric Acid, Observed, Median",Week 40 - Pre-Infusion,0.30 mg/dL
same,"sUA <6 mg/dL, n (%)",Week 40 - Pre-Infusion,3 (100%)
same,"Serum Uric Acid, Change from Baseline, Mean (SD)",Week 42 - Pre-Infusion,−11.30 (3.686) mg/dL
same,"Serum Uric Acid, Change from Baseline, Median",Week 42 - Pre-Infusion,-9.80 mg/dL
same,"Serum Uric Acid, Observed, Mean (SD)",Week 42 - Pre-Infusion,0.30 (0.000) mg/dL
same,"Serum Uric Acid, Observed, Median",Week 42 - Pre-Infusion,0.30 mg/dL
same,"sUA <6 mg/dL, n (%)",Week 42 - Pre-Infusion,3 (100%)
same,"Serum Uric Acid, Change from Baseline, Mean (SD)",Week 44 - Pre-Infusion,−10.55 (4.625) mg/dL
same,"Serum Uric Acid, Change from Baseline, Median",Week 44 - Pre-Infusion,-9.80 mg/dL
same,"Serum Uric Acid, Observed, Mean (SD)",Week 44 - Pre-Infusion,1.05 (1.305) mg/dL
same,"Serum Uric Acid, Observed, Median",Week 44 - Pre-Infusion,0.30 mg/dL
same,"sUA <6 mg/dL, n (%)",Week 44 - Pre-Infusion,3 (100%)
same,"Serum Uric Acid, Change from Baseline, Mean (SD)",Week 46 - Pre-Infusion,−12.65 (4.031) mg/dL
same,"Serum Uric Acid, Change from Baseline, Median",Week 46 - Pre-Infusion,-12.65 mg/dL
same,"Serum Uric Acid, Observed, Mean (SD)",Week 46 - Pre-Infusion,0.30 (0.000) mg/dL
same,"Serum Uric Acid, Observed, Median",Week 46 - Pre-Infusion,0.30 mg/dL
same,"sUA <6 mg/dL, n (%)",Week 46 - Pre-Infusion,2 (100%)
same,"Serum Uric Acid, Change from Baseline, Mean (SD)",Week 48 - Post-Infusion,−10.33 (4.922) mg/dL
same,"Serum Uric Acid, Change from Baseline, Median",Week 48 - Post-Infusion,-9.80 mg/dL
same,"Serum Uric Acid, Observed, Mean (SD)",Week 48 - Post-Infusion,1.60 (2.252) mg/dL
same,"Serum Uric Acid, Observed, Median",Week 48 - Post-Infusion,0.30 mg/dL
same,"sUA <6 mg/dL, n (%)",Week 48 - Post-Infusion,3 (100%)
same,"Serum Uric Acid, Change from Baseline, Mean (SD)",Week 48 - Pre-Infusion,−12.65 (4.031) mg/dL
same,"Serum Uric Acid, Change from Baseline, Median",Week 48 - Pre-Infusion,-12.65 mg/dL
same,"Serum Uric Acid, Observed, Mean (SD)",Week 48 - Pre-Infusion,0.30 (0.000) mg/dL
same,"Serum Uric Acid, Observed, Median",Week 48 - Pre-Infusion,0.30 mg/dL
same,"sUA <6 mg/dL, n (%)",Week 48 - Pre-Infusion,2 (100%)
same,"Serum Uric Acid, Change from Baseline, Mean (SD)",Week 50 - Post-Infusion,−10.57 (4.598) mg/dL
same,"Serum Uric Acid, Change from Baseline, Median",Week 50 - Post-Infusion,-9.80 mg/dL
same,"Serum Uric Acid, Observed, Mean (SD)",Week 50 - Post-Infusion,1.37 (1.848) mg/dL
same,"Serum Uric Acid, Observed, Median",Week 50 - Post-Infusion,0.30 mg/dL
same,"sUA <6 mg/dL, n (%)",Week 50 - Post-Infusion,3 (100%)
same,"Serum Uric Acid, Change from Baseline, Mean (SD)",Week 50 - Pre-Infusion,−12.65 (4.031) mg/dL
same,"Serum Uric Acid, Change from Baseline, Median",Week 50 - Pre-Infusion,-12.65 mg/dL
same,"Serum Uric Acid, Observed, Mean (SD)",Week 50 - Pre-Infusion,0.30 (0.000) mg/dL
same,"Serum Uric Acid, Observed, Median",Week 50 - Pre-Infusion,0.30 mg/dL
same,"sUA <6 mg/dL, n (%)",Week 50 - Pre-Infusion,2 (100%)
same,"Serum Uric Acid, Change from Baseline, Mean (SD)",Week 52/ET,−12.65 (4.031) mg/dL
same,"Serum Uric Acid, Change from Baseline, Median",Week 52/ET,-12.65 mg/dL
same,"Serum Uric Acid, Observed, Mean (SD)",Week 52/ET,0.30 (0.000) mg/dL
same,"Serum Uric Acid, Observed, Median",Week 52/ET,0.30 mg/dL
same,"sUA <6 mg/dL, n (%)",Week 52/ET,2 (100%)
